The term IC50 denotes the concentration at which inhibition is half-maximal. A high value points to a need for much substance.

6 molecules from ChEMBL document CHEMBL1158107, “Oleanane and taraxerane glycosides from the roots of Gomphrena macrocephala” (J Nat Prod, 2006) can be followed below.

Activity calls are given as the source filed them. No cut-off for these calls is given here.

For one test, the system named is HSC-2. Briefly: Cytotoxicity against human HSC2 cells at 100 uM after 24 hrs by MTT assay. In kind it is functional, cell-based.
Details: not given
In the case of `CC1(C)CC[C@@]23CC[C@]4(C)[C@@](OC2=O)([C@@H]3C1)[C@H]1O[C@H]1[C@@H]1[C@@]2(C)CC[C@H](O[C@@H]3O[C@H](C(=O)O)[C@@H](O)[C@H](O)[C@H]3O)C(C)(C)[C@@H]2CC[C@]14C`, the outcome was inactive. Still for that read-out and setting: as for `CC1(C)CC[C@]2(C(=O)O[C@@H]3O[C@H](CO)[C@@H](O)[C@H](O)[C@H]3O)CC=C3[C@](C)([C@@H]2C1)[C@H]1O[C@H]1[C@@H]1[C@@]2(C)CC[C@H](O[C@@H]4O[C@H](C(=O)O)[C@@H](O)[C@H](O)[C@H]4O)C(C)(C)[C@@H]2CC[C@@]31C`, the entry is “inactive”. Still for that read-out and setting: as for `CC1(C)CC[C@@]23CC[C@]4(C)[C@@](OC2=O)([C@@H]3C1)[C@H]1O[C@H]1[C@@H]1[C@@]2(C)CC[C@H](O[C@@H]3O[C@H](C(=O)O)[C@@H](O)[C@H](O[C@@H]5O[C@H](CO)[C@H](O)[C@H](O)[C@H]5O)[C@H]3O[C@@H]3O[C@H](CO)[C@@H](O)[C@H](O)[C@H]3O)C(C)(C)[C@@H]2CC[C@]14C`, the entry is “inactive”.

A further test relates to HSC-2. Kind of test: Cytotoxicity against human HSC2 cells after 24 hrs by MTT assay. In kind it is functional, cell-based. As to conditions: HSC-2, 24 h.
Take `CC1(C)CC[C@@]23CC[C@]4(C)[C@@](OC2=O)([C@@H]3C1)[C@H]1O[C@H]1[C@@H]1[C@@]2(C)CC[C@H](O)C(C)(C)[C@@H]2CC[C@]14C`: the IC50 was 21 µM. On the same count and under the same terms, as for `CC1(C)CC[C@]2(C(=O)O)CC=C3[C@](C)([C@@H]2C1)[C@H]1O[C@H]1[C@@H]1[C@@]2(C)CC[C@H](O)C(C)(C)[C@@H]2CC[C@@]31C`, the figure is 21 µM; as for `COc1cc([C@@H]2c3cc4c(cc3[C@@H](O[C@@H]3O[C@@H]5CO[C@@H](C)O[C@H]5[C@H](O)[C@H]3O)[C@H]3COC(=O)[C@H]23)OCO4)cc(OC)c1O` [ETOPOSIDE], 24 µM.
